The source of these data is US5599793A, “Antithromobotic agents” (Eli Lilly and Company, priority 1995, dated 1997).

For assay [1], the system named is Human plasma. The experiment in a line: Human plasma anticoagulation, thrombin time (TT). The assay is classed as biochemical. The conditions noted are these: concentration required to double the thrombin time, linear extrapolation.
In assay [2] the target is T1, Trypsin (Bos taurus, UniProt P00760).
T1 construct: Bovine trypsin is purchased; purchased Worthington Biochemicals, Freehold, N.J
T1 sequence (P00760 24-246): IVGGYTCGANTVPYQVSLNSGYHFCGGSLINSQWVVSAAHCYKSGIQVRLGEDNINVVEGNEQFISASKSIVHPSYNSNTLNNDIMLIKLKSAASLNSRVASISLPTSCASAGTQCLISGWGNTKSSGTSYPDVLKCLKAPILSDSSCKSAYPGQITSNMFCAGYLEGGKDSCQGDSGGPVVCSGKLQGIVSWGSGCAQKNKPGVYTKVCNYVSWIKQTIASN
Briefly: Serine protease selectivity, chromogenic substrate (Kass), trypsin. The assay is classed as biochemical, bovine. To be noted: substrate N-Benzoyl-Phe-Val-Arg-p-nitroanilide.

Assay [3] concerns the target T2, t-PA (Homo sapiens, UniProt P00750).
T2 construct: purchased American Diagnostica, Greenwich, Conn
The experiment in a line: Serine protease selectivity, chromogenic substrate (Kass), t-PA. Format: biochemical. The conditions noted are these: substrate H-D-Ile-Pro-Arg-p-nitroanilide.

Assay [4] concerns the target T3, Plasmin (Homo sapiens, UniProt P00747).
T3 construct: Human plasmin is purchased; purchased Boehringer Mannheim, Indianapolis, Ind
The experiment in a line: Serine protease selectivity, chromogenic substrate (Kass), plasmin. The assay is classed as biochemical. To be noted: substrate H-D-Val-Leu-Lys-p-nitroanilide.

Each structure is given as a SMILES string.

T2 sequence (P00750 36-562): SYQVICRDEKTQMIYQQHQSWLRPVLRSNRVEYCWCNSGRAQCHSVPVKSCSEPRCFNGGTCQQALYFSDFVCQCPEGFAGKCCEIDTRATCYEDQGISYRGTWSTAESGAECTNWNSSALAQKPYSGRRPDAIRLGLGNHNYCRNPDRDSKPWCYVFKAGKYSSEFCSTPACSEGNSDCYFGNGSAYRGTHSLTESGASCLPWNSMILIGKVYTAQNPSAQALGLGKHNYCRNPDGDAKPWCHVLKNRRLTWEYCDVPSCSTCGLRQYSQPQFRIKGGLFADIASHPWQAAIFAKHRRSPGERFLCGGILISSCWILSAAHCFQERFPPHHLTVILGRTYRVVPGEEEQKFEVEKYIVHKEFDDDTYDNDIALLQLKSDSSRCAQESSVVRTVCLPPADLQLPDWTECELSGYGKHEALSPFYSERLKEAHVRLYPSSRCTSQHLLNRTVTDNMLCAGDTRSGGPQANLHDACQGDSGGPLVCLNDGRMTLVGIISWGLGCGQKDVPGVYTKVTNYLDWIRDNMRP
T3 sequence (P00747 581-810 limits assumed): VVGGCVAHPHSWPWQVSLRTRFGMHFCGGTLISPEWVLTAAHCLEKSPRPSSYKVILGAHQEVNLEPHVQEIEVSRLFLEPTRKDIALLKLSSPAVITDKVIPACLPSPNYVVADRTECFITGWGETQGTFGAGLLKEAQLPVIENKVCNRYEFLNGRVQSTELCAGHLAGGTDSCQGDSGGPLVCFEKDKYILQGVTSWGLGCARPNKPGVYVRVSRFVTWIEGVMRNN
T3 sequence (P00747 97-580 partner limits assumed): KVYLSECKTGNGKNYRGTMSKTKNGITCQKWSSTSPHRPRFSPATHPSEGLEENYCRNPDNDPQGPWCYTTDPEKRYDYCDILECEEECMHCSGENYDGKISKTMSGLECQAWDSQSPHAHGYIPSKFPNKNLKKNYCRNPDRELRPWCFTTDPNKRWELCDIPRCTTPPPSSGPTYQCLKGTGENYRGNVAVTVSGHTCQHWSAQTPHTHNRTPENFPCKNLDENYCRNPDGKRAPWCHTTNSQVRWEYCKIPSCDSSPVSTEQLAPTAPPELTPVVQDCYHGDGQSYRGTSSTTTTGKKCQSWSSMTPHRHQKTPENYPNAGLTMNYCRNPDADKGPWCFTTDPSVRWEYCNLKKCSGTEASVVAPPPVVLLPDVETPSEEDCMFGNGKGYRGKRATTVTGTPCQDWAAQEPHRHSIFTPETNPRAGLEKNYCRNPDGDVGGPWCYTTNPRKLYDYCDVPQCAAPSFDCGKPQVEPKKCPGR

As to `Cl.Cl.N=C(N)NCCC[C@@H](C=O)NC(=O)[C@@H]1CC2CCCCC2N1C(=O)[C@H]1CCCCN1` (relative stereo) [Example 7, N-[(1-D-homoprolyl-cis-octahydro-1H-indol-2(S)-yl)carbonyl]-L-argininal dihydrochloride], the “2x Clotting time, TT” value in assay [1] is reported as 37 ng/mL. For the same compound, the “Enzyme Kass, Trypsin” value in assay [2] is 150 L/mol × 10^6. For the same compound, the “Enzyme Kass, t-PA” value in assay [3] stood at 0.053 L/mol × 10^6. The “Enzyme Kass, Plasmin” value in assay [4] turned out to be 1.8 L/mol × 10^6.
On to `CCS(=O)(=O)N[C@@H](C(=O)N1[C@H](C(=O)N[C@H](C=O)CCCNC(=N)N)C[C@@H]2CCCC[C@@H]21)c1ccccc1.Cl` (relative stereo) [Example 22, EtSO2 -D-Phg-cis-Ohi-ArgH.HCl], for which the “2x Clotting time, TT” value in assay [1] was 9 ng/mL. In addition, the “Enzyme Kass, Trypsin” value in assay [2] worked out at 312 L/mol × 10^6. For the same compound, in assay [3], the “Enzyme Kass, t-PA” value was found to be 0.085 L/mol × 10^6. In addition, the “Enzyme Kass, Plasmin” value in assay [4] is 27.6 L/mol × 10^6.
On to `Cl.Cl.N=C(N)NCCCC(C=O)NC(=O)C1CC2CCCCC2N1C(=O)C1NCCC2CCCCC21` [Example 20, D-1-cis-Piq-cis-Ohi-ArgH.2 HCl], for which the “2x Clotting time, TT” value in assay [1] (HCl) is on record as 19 ng/mL. The “Enzyme Kass, Trypsin” value in assay [2] (HCl) is recorded as 119 L/mol × 10^6. The “Enzyme Kass, t-PA” value in assay [3] (HCl) came to 0.013 L/mol × 10^6. Besides, the “Enzyme Kass, Plasmin” value in assay [4] (HCl) is 3.67 L/mol × 10^6.
Turning to `Cl.Cl.N=C(N)NCCC[C@H](C=O)NC(=O)[C@@H]1C[C@H](Oc2ccccc2)CN1C(=O)[C@H]1CCCCN1` (relative stereo) [Example 8, D-homoprolyl-L-cis-4-phenoxy-L-prolyl-D-argininal dihydrochloride], the “2x Clotting time, TT” value in assay [1] was 70 ng/mL. Moreover, the “Enzyme Kass, Trypsin” value in assay [2] is on record as 270 L/mol × 10^6. In addition, the “Enzyme Kass, t-PA” value in assay [3] is given as 0.069 L/mol × 10^6. In addition, in assay [4], the “Enzyme Kass, Plasmin” value was 2.9 L/mol × 10^6.
On the same counts, the results for `Cl.Cl.Cl.N=C(N)NCCC[C@@H](C=O)NC(=O)[C@@H]1C[C@H](Oc2ccc(N)cc2)CN1C(=O)[C@H]1CCCCN1` (relative stereo) [Example 11, D-hPro-Pro(4-cis-(4-NH2-phenoxy))-ArgH.3 HCl] are 96 ng/mL, 74 L/mol × 10^6, 0.086 L/mol × 10^6 and 1.4 L/mol × 10^6.
Taken in the same sequence, the figures for `CCC[C@H]1C[C@@H](C(=O)N[C@H](C=O)CCCNC(=N)N)N(C(=O)[C@H]2CCCCN2)C1.Cl.Cl` (relative stereo) [Example 3, D-hPro-Pro(4-cis-n-propyl)-ArgH.2 HCl] were 120 ng/mL, 260 L/mol × 10^6, 0.14 L/mol × 10^6 and 0.66 L/mol × 10^6.
Taken in the same sequence, the figures for `Cl.Cl.N=C(N)NCCC[C@@H](C=O)NC(=O)[C@@H]1C[C@H](Oc2ccccc2)CN1C(=O)C1NCCC2CCCCC21` (relative stereo) [Example 15, D-1-Piq-Pro(4-cis-phenoxy)-ArgH.2 HCl] were 28 ng/mL, 140 L/mol × 10^6, 0.045 L/mol × 10^6 and 5.1 L/mol × 10^6.
In the case of `Cl.Cl.N=C(N)NCCC[C@@H](C=O)NC(=O)[C@@H]1C[C@H](Cc2ccccc2)CN1C(=O)[C@H]1CCCCN1` (relative stereo) [Example 5, D-hPro-Pro(4-cis-benzyl)-ArgH.2 HCl], in assay [1], the “2x Clotting time, TT” value is on record as 80 ng/mL. The “Enzyme Kass, Trypsin” value in assay [2] is 150 L/mol × 10^6. Moreover, in assay [3], the “Enzyme Kass, t-PA” value was determined as 0.057 L/mol × 10^6. In addition, the “Enzyme Kass, Plasmin” value in assay [4] is recorded as 2.1 L/mol × 10^6.
Taken in the same sequence, the figures for `Cl.Cl.Cl.N=C(N)NCCC[C@@H](C=O)NC(=O)[C@@H]1C[C@H](Oc2cccnc2)CN1C(=O)[C@H]1CCCCN1` (relative stereo) [Example 9, D-hPro-Pro(4-cis-(3-pyridyloxy))-ArgH.3 HCl] were 50 ng/mL, 130 L/mol × 10^6, 0.055 L/mol × 10^6 and 1.7 L/mol × 10^6.
`C[C@H]1C[C@@H](C(=O)N[C@H](C=O)CCCNC(=N)N)N(C(=O)[C@H]2CCCCN2)C1.Cl.Cl` (relative stereo) [Example 1, D-homoprolyl-L-cis-4-methyl-prolyl-L-argininal dihydrochloride]: in assay [1], the “2x Clotting time, TT” value was 60 ng/mL. The “Enzyme Kass, Trypsin” value in assay [2] is given as 390 L/mol × 10^6. In addition, the “Enzyme Kass, t-PA” value in assay [3] was found to be 0.077 L/mol × 10^6. Besides, the “Enzyme Kass, Plasmin” value in assay [4] stood at 0.86 L/mol × 10^6.
Taken in the same sequence, the figures for `CC[C@H]1C[C@@H](C(=O)N[C@H](C=O)CCCNC(=N)N)N(C(=O)[C@H]2CCCCN2)C1.Cl.Cl` (relative stereo) [Example 2, D-homoprolyl-L-cis-4-ethyl-prolyl-L-argininal dihydrochloride] were 51 ng/mL, 520 L/mol × 10^6, 0.097 L/mol × 10^6 and 1.0 L/mol × 10^6.
